Experimental data taken from ChEMBL document CHEMBL2203016, “Purpuroines A-J, halogenated alkaloids from the sponge Iotrochota purpurea with antibiotic activity and regulation of tyrosine kinases” (Bioorg Med Chem, 2012).
Converted amounts (≈) assume the structure as drawn. The source made the active and inactive calls. The rule behind the calls is not given here.

How the values were obtained:
Saccharomyces cerevisiae = experiment: Antimicrobial activity against Saccharomyces cerevisiae by microplate reader analysis; format: functional, organism-based
Aspergillus fumigatus [1] = experiment: Antimicrobial activity against Aspergillus fumigatus at 20 ug/ml by microplate reader analysis; format: functional, organism-based
Pseudomonas aeruginosa = experiment: Antimicrobial activity against Pseudomonas aeruginosa by microplate reader analysis; format: functional, organism-based
Aspergillus flavus = experiment: Antimicrobial activity against Aspergillus flavus by microplate reader analysis; format: functional, organism-based
Fusarium oxysporum = experiment: Antimicrobial activity against Fusarium oxysporum by microplate reader analysis; format: functional, organism-based
Streptococcus pneumoniae [2] = experiment: Antimicrobial activity against Streptococcus pneumoniae at 20 ug/ml by microplate reader analysis; format: functional, organism-based
Escherichia coli = experiment: Antimicrobial activity against Escherichia coli by microplate reader analysis; format: functional, organism-based
Staphylococcus aureus = experiment: Antimicrobial activity against Staphylococcus aureus by microplate reader analysis; format: functional, organism-based
Candida albicans [3] = experiment: Antimicrobial activity against Candida albicans at 20 ug/ml by microplate reader analysis; format: functional, organism-based
Candida albicans [4] = experiment: Antimicrobial activity against Candida albicans by microplate reader analysis; format: functional, organism-based
Aspergillus fumigatus [5] = experiment: Antimicrobial activity against Aspergillus fumigatus by microplate reader analysis; format: functional, organism-based
Streptococcus pneumoniae [6] = experiment: Antimicrobial activity against Streptococcus pneumoniae by microplate reader analysis; format: functional, organism-based
[7] = molecular target: Cyclin-dependent kinase 2 (Homo sapiens, UniProt P24941); experiment: Inhibition of CDK2
[8] = molecular target: Tyrosine-protein kinase Lck (Homo sapiens, UniProt P06239); experiment: Inhibition of LCK
Tyrosine-protein kinase Lck, sequence (P06239 whole entry): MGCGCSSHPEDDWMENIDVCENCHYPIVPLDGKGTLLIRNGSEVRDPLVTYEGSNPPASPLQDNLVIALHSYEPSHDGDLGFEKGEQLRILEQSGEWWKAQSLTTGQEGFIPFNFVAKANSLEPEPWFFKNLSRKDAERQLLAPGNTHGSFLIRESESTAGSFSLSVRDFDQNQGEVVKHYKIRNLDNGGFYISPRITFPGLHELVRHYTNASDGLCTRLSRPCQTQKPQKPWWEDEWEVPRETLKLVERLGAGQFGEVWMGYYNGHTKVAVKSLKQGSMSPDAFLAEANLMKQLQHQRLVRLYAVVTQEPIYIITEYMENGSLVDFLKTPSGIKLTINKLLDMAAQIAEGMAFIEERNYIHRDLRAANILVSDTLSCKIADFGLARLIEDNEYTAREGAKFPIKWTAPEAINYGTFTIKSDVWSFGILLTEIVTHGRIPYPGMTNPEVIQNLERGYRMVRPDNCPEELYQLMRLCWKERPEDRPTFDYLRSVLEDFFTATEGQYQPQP

[9] = molecular target: Serine/threonine-protein kinase PLK1 (Homo sapiens, UniProt P53350); experiment: Inhibition of PLK1
Serine/threonine-protein kinase PLK1, sequence (P53350 whole entry): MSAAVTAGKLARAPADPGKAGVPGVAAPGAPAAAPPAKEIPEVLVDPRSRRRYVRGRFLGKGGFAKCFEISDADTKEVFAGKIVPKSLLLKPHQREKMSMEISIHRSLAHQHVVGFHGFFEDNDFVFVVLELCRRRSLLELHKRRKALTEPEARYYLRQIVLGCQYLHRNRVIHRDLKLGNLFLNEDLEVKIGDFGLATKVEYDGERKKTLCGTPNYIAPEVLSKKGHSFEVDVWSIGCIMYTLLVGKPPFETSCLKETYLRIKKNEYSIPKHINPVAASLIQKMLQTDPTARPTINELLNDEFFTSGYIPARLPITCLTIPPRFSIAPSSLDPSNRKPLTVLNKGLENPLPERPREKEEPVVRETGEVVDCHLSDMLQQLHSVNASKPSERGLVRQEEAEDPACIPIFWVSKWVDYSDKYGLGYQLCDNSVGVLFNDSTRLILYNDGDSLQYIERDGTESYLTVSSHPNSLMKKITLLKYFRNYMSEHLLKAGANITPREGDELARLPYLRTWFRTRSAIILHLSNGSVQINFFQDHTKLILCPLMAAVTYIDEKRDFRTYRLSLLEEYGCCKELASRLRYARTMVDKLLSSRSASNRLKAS

[10] = Candida albicans, read-out: IC50
[11] = Aspergillus fumigatus, read-out: IC50
[12] = Streptococcus pneumoniae, read-out: IC50

## C[N+](C)(C)[C@H](CCOc1c(Cl)cc(Br)cc1Br)C(=O)[O-]
Saccharomyces cerevisiae
  Activity: Active
Aspergillus fumigatus [1]
  Activity: inactive
Pseudomonas aeruginosa
  Activity: Active
Aspergillus flavus
  Activity: Active
Fusarium oxysporum
  Activity: Active
Streptococcus pneumoniae [2]
  Activity: inactive
Escherichia coli
  Activity: Active
Staphylococcus aureus
  Activity: Active
Candida albicans [3]
  Activity: inactive

## COC(=O)[C@@H](Cc1c[nH]c2cc(Br)ccc12)[N+](C)(C)C (racemic)
Saccharomyces cerevisiae
  Activity: Active
Aspergillus fumigatus [1]
  Activity: inactive
Pseudomonas aeruginosa
  Activity: Active
Aspergillus flavus
  Activity: Active
Fusarium oxysporum
  Activity: Active
Streptococcus pneumoniae [2]
  Activity: inactive
Escherichia coli
  Activity: Active
Staphylococcus aureus
  Activity: Active
Candida albicans [3]
  Activity: inactive

## C[C@@H]1[C@H](O)[C@@H](C)/C=C/C=C/C=C/C=C/C=C/C=C/C=C/[C@H](O[C@@H]2O[C@H](C)[C@@H](O)[C@H](N)[C@@H]2O)C[C@@H]2O[C@](O)(C[C@@H](O)C[C@@H](O)[C@H](O)CC[C@@H](O)C[C@@H](O)CC(=O)O[C@H]1C)C[C@H](O)[C@H]2C(=O)O [AMPHOTERICIN B]
Candida albicans [4]; [10]
  IC50: 4.26 µg/mL (≈ 4.61 µM)
Aspergillus fumigatus [5]; [11]
  IC50: 3.27 µg/mL (≈ 3.54 µM)

## CC1(C)S[C@@H]2[C@H](NC(=O)[C@H](N)c3ccccc3)C(=O)N2[C@H]1C(=O)O [AMPICILLIN]
Streptococcus pneumoniae [6]; [12]
  IC50: 0.38 µg/mL (≈ 1.09 µM)

## C[N+](C)(C)[C@H](CCOc1c(Br)cc(Br)cc1Br)C(=O)[O-] [PURPUROINE A]
Candida albicans [4]
  IC50: Not Active
[7]
  IC50: > 105 µM
[8]
  IC50: 4.96 µM
[9]
  IC50: > 105 µM
Aspergillus fumigatus [5]; [11]
  IC50: 28.6 µg/mL (≈ 60.3 µM)
Streptococcus pneumoniae [6]
  IC50: Not Active

## C[N+](C)(C)[C@H](CCOc1ccc(Br)cc1Br)C(=O)[O-] [PURPUROINE B]
[7]
  IC50: > 127 µM
[8]
  IC50: 32.3 µM
Saccharomyces cerevisiae
  Activity: Active
Aspergillus fumigatus [1]
  Activity: inactive
Pseudomonas aeruginosa
  Activity: Active
[9]
  IC50: > 127 µM
Aspergillus flavus
  Activity: Active
Fusarium oxysporum
  Activity: Active
Streptococcus pneumoniae [2]
  Activity: inactive
Escherichia coli
  Activity: Active
Staphylococcus aureus
  Activity: Active
Candida albicans [3]
  Activity: inactive

## C[N+](C)(C)[C@H](CCOc1c(Cl)cc(Br)cc1Cl)C(=O)[O-] [PURPUROINE C]
Candida albicans [4]
  IC50: Not Active
[7]
  IC50: > 130 µM
[8]
  IC50: 11.7 µM
[9]
  IC50: 17.8 µM
Aspergillus fumigatus [5]; [11]
  IC50: 26.1 µg/mL (≈ 67.7 µM)
Streptococcus pneumoniae [6]
  IC50: Not Active

## C[N+](C)(C)[C@H](CCOc1c(Br)cc(Br)cc1I)C(=O)[O-] [PURPUROINE D]
Candida albicans [4]; [10]
  IC50: 19 µg/mL (≈ 36.5 µM)
[7]
  IC50: > 96 µM
[8]
  IC50: 1.8 µM
[9]
  IC50: 2.78 µM
Aspergillus fumigatus [5]; [11]
  IC50: 25.6 µg/mL (≈ 49.1 µM)
Streptococcus pneumoniae [6]
  IC50: Not Active

## COc1c(I)cc(C[C@H](C(=O)[O-])[N+](C)(C)C)cc1I [PURPUROINE F]
[7]
  IC50: > 102 µM
[8]
  IC50: 14.7 µM
Saccharomyces cerevisiae
  Activity: Active
Aspergillus fumigatus [1]
  Activity: inactive
Pseudomonas aeruginosa
  Activity: Active
[9]
  IC50: 9.24 µM
Aspergillus flavus
  Activity: Active
Fusarium oxysporum
  Activity: Active
Streptococcus pneumoniae [2]
  Activity: inactive
Escherichia coli
  Activity: Active
Staphylococcus aureus
  Activity: Active
Candida albicans [3]
  Activity: inactive

## C[N+](C)(C)[C@H](Cc1cc(I)c(O)c(I)c1)C(=O)[O-] [PURPUROINE G]
[7]
  IC50: > 105 µM
[8]
  IC50: 25 µM
Saccharomyces cerevisiae
  Activity: Active
Aspergillus fumigatus [1]
  Activity: inactive
Pseudomonas aeruginosa
  Activity: Active
[9]
  IC50: 21.2 µM
Aspergillus flavus
  Activity: Active
Fusarium oxysporum
  Activity: Active
Streptococcus pneumoniae [2]
  Activity: inactive
Escherichia coli
  Activity: Active
Staphylococcus aureus
  Activity: Active
Candida albicans [3]
  Activity: inactive

## COc1c(Br)cc(C[C@H](C(=O)[O-])[N+](C)(C)C)cc1I [PURPUROINE H]
[7]
  IC50: > 113 µM
[8]
  IC50: 17.9 µM
[9]
  IC50: 17.1 µM

## C[N+](C)(C)[C@H](Cc1cc(Br)c(O)c(I)c1)C(=O)[O-] [PURPUROINE I]
Candida albicans [4]
  IC50: Not Active
[7]
  IC50: > 117 µM
[8]
  IC50: > 117 µM
Aspergillus fumigatus [1]
  Activity: inactive
[9]
  IC50: > 117 µM
Aspergillus fumigatus [5]
  IC50: Not Active
Streptococcus pneumoniae [2]
  Activity: inactive
Streptococcus pneumoniae [6]; [12]
  IC50: 18.1 µg/mL (≈ 42.2 µM)
Candida albicans [3]
  Activity: inactive
